Laboratory results published in patent publication US20080171716A1, “NUCLEIC ACID MODULATION OF TOLL-LIKE RECEPTOR-MEDIATED IMMUNE STIMULATION” (Protiva Biotherapeutics, Inc., priority 2006, published 2008).
m = 2'-O-methyl; r = 2'-OH (RNA)

Assays:
[1] = tested on: TLR7/8; test: Cytokine induction in human PBMCs by immunostimulatory RNA, alone or co-formulated with modified ssRNA in the same SNALP/lipid particle; assay type: cell-based; details: for IFN-α induction by NP ssRNA when co-formulated: 0.5 μg/ml NP ssRNA; for IFN-α induction by NP ssRNA when co-formulated / immunostimulatory effects (IFN-α induction) of ApoB antisense ssRNA when co-formulated: 1:1 molar ratio; for cytokine production from human PBMCs when co-formulated with immunostimulatory RNA: co-formulated with immunostimulatory ssRNA; for IFN-α levels induced by β-gal antisense ssRNA when co-encapsulated / IL-6 levels induced by β-gal antisense ssRNA when co-encapsulated: equimolar amounts in the same SNALP; for IFN-α production induced by the RNA alone: lipid-formulated RNA alone, doses 0.1 to 3 μg/ml
Protocol: (§1) All RNA molecules used in this study were heated at 90° C. for 3 min. and then placed at 37° C. for 60 min. Non-denaturing PAGE analysis on a 20% polyacrylamide gel was performed to confirm that ssRNA molecules were intact and that no duplexes had formed upon heating. The RNA molecules were encapsulated in a SNALP formulation comprising PEG-cDMA:DLinDMA:cholesterol:DSPC in a 2:40:48:10 mol % ratio (2:40 SNALP), prepared using a syringe press process.
(§2) Fresh human peripheral blood mononuclear cells (PBMCs) were isolated and seeded at about 3×10^5 cells/well in a total volume of 180 μl. Next, 20 μl of the appropriate SNALP diluted in PBS or 10 μl of naked TLR agonist were added to the PBMCs. For time course experiments, PBMCs were pretreated with UmodS ssRNA or a control and the appropriate naked TLR agonist was added at 0, 0.5, or 2 hours after pretreatment. When the SNALP and naked TLR agonist were added separately, the SNALP was added first followed by the naked TLR agonist. At t=24 hr., the cell supernatant was harvested and IFN-α and/or IL-6 levels were determined using ELISA.
The ssRNA molecules used in this study were heated at 90° C. for 3 min. and then placed at 37° C. for 60 min to disrupt any potential secondary structure. Non-denaturing PAGE analysis on a 20% polyacrylamide gel was performed to confirm that ssRNA molecules were intact and that no duplexes had formed upon heating. siRNA duplexes were prepared by annealing equimolar concentrations of two deprotected and desalted ssRNA oligonucleotides using standard procedures. Formation of annealed siRNA duplexes was confirmed by non-denaturing PAGE analysis on a 20% polyacrylamide gel. The RNA molecules were encapsulated in a 2:40 SNALP formulation prepared using a syringe press process.
Fresh human peripheral blood mononuclear cells (PBMCs) were isolated and seeded at about 3×10^5 cells/well in a total volume of 180 μl. Next, 20 μl of the appropriate SNALP diluted in PBS were added to the PBMCs. At t=24 hr., the cell supernatant was harvested and IFN-α and/or IL-6 levels were determined using an enzyme-linked immunosorbent assay (ELISA). For example, IFN-α and IL-6 levels can be measured using a sandwich ELISA kit available from PBL Biomedical (Piscataway, N.J.) and eBioscience (San Diego, Calif.), respectively.
(§3) Lipid Encapsulation of RNA and ODN. RNA or ODN were encapsulated in liposomes by a process of spontaneous vesicle formation as described in Judge et al., supra, and Jeffs et al., Pharm. Res., 22:362-372 (2005).
(§4) Cell Isolation and Culture. Human PBMCs were isolated from whole blood of healthy donors by a standard Ficoll-Hypaque density centrifugation. Blood was diluted 1:1 with PBS, layered onto Ficoll-Paque Plus, and centrifuged at 1600 RPM for 30 min. PBMCs were washed in PBS twice followed by resuspension in complete media (RPMI 1640, 10% heat inactivated FBS, 2 mM L-glutamine, and 1% penicillin/streptomycin). PBMCs were plated at 2.5×10^5 cells/well in 96 well plates for cytokine induction assays.
(§5) Loxoribine (InvivoGen; San Diego, Calif.), polyIC (Sigma-Aldrich; St. Louis, Mo.), and formulated nucleic acids were diluted in PBS and added to either human PBMC or Flt3L DC cultures. Cells were incubated 24 h at 37° C. before supernatants were assayed for cytokines by ELISA.
(§6) Cytokine ELISA. All cytokines were quantified using sandwich ELISA kits according to the manufacturer's instructions. These were mouse and human IFN-α (PBL Biomedical; Piscataway, N.J.) and IL-6 (eBioscience; San Diego, Calif.).

[2] = target: T1, TLR7 (Homo sapiens, UniProt Q9NYK1); test: Loxoribine (TLR7 agonist)-induced IFN-α/IL-6 production in human PBMCs; assay type: cell-based; details: SNALP-encapsulated ssRNA added before naked agonist, supernatant at 24 hr, ELISA
T1 construct: Human PBMCs were isolated from whole blood of healthy donors; endogenous in cells; host or cells: primary human PBMCs from healthy donors
T1 sequence (Q9NYK1 27-1049): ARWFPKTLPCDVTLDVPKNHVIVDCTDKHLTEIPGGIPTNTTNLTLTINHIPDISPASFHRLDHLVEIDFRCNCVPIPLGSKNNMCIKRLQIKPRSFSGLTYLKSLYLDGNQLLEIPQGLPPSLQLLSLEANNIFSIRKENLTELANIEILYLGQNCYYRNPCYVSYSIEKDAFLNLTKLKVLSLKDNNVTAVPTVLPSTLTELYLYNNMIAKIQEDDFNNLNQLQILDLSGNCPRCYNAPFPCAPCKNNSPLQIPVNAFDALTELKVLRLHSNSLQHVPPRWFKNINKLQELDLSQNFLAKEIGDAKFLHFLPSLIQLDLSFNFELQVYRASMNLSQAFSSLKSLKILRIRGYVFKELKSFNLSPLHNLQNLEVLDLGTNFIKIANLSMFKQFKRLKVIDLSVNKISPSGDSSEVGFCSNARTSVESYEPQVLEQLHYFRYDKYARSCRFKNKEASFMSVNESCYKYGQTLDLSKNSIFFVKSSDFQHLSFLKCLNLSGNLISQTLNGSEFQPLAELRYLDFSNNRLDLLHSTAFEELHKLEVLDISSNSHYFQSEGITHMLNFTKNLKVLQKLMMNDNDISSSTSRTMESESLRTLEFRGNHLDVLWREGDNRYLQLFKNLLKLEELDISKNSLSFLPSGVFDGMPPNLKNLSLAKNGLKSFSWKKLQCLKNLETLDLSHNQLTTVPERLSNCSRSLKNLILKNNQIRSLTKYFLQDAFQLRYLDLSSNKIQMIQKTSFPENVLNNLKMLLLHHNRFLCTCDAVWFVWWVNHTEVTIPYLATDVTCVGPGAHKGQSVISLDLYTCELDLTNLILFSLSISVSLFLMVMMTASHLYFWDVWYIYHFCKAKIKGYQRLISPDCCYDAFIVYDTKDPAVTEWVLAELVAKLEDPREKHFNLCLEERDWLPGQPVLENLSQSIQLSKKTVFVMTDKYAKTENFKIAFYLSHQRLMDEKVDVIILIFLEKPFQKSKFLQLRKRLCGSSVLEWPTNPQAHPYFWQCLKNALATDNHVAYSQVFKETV
Protocol: as §1, §2, §3, §4, §5, §6

[3] = human PBMCs, co-formulated in the same SNALP, 24 h

Substance: βgal-mG: 2′OMe-guanosine modified RNA: CUACACAAAUCAmGCmGAUUUUU (CUACACAAAUCAGCGAUUUUU; sugars from the 5' end r12 m1 r1 m1 r6, backbone not given here)
- IFN-α induction by NP ssRNA when co-formulated ([1]; human PBMCs, 24 h): inhibits

Substance: NP-mC: 2′OMe-cytidine RNA: GGAUmCUUAUUUmCUUmCGGAGUU (GGAUCUUAUUUCUUCGGAGUU; 2'-O-methyl at C, RNA at AGU, backbone not given here)
- immunostimulatory effects (IFN-α induction) of ApoB antisense ssRNA when co-formulated [1, 3]: do not inhibit

Substance: polyUmod15: 2′OMe-uridine homopolymer of 15 nucleotides in length (UUUUUUUUUUUUUUU; all 2'-O-methyl, backbone not given here)
- cytokine production from human PBMCs when co-formulated with immunostimulatory RNA ([1]; human PBMCs): equally as effective at inhibiting cytokine production
- IFN-α levels induced by β-gal antisense ssRNA when co-encapsulated ([1]; human PBMCs, 24 h): significantly reduced
- IL-6 levels induced by β-gal antisense ssRNA when co-encapsulated ([1]; human PBMCs, 24 h): significantly reduced
- IFN-α levels induced by β-gal antisense ssRNA when co-encapsulated ([1]; human PBMCs, 24 h, listed as (mU)15): inhibit
- IL-6 levels induced by naked loxoribine [2]: inhibited only IFN-α levels
- level of IFN-α induced by naked loxoribine [2]: inhibited

Substance: βgal-mA: 2′OMe-adenosine modified RNA: CUmACmACmAmAmAUCmAGCGmAUUUU (CUACACAAAUCAGCGAUUUU; 2'-O-methyl at A, RNA at CGU, backbone not given here)
- IFN-α induction by NP ssRNA when co-formulated ([1]; human PBMCs, 24 h): inhibits

Substance: ApoB antisense ssRNA: immunostimulatory antisense ssRNA: AUUGGUAUUCAGUGUGAUGACAC (chemistry not given here) [reference compound]
- IFN-α production induced by the RNA alone ([1]; human PBMC cultures): induced high levels of IFN-α
- IFN-α production induced by ApoB antisense ssRNA in absence of modified ssRNA ([1]; human PBMCs, SNALP, 24 hr): 5000 to 6000 pg/mL

Substance: βgal-mC: 2′OMe-cytidine RNA: mCUAmCAmCAAAUmCAGmCGAUUUUU (CUACACAAAUCAGCGAUUUUU; 2'-O-methyl at C, RNA at AGU, backbone not given here)
- IFN-α induction by NP ssRNA when co-formulated ([1]; human PBMCs, 24 h): not
- immunostimulatory effects (IFN-α induction) of ApoB antisense ssRNA when co-formulated [1, 3]: do not inhibit

Substance: NP1496: unmodified NP1496 sense strand ssRNA: GGAUCUUAUUUCUUCGGAGUU (RNA, backbone not given here) [reference compound]
- immunostimulatory effects (IFN-α induction) of ApoB antisense ssRNA when co-formulated [1, 3]: high levels of IFN-α were still induced

Substance: Luc: unmodified Luc sense strand ssRNA: 5′GAUUAUGUCCGGUUAUGUAUU 3′ (sense GAUUAUGUCCGGUUAUGUAUU; RNA, backbone not given here) [reference compound]
- immunostimulatory effects (IFN-α induction) of ApoB antisense ssRNA when co-formulated [1, 3]: high levels of IFN-α were still induced

Substance: NP1496 UmodS: influenza NP1496 sense strand ssRNA with 2′OMe uridines: GGAmUCmUmUAmUmUmUCmUmUCGGAGUU (sense GGAUCUUAUUUCUUCGGAGUU; sugars from the 5' end rrrmrmmrmmmrmmrrrrrrr, backbone not given here)
- IFN-α production induced by the RNA alone ([1]; […]): do not induce measurable IFN-α production
- immunostimulatory effects of ApoB antisense ssRNA at molar excess of agonist ([1]; human PBMCs, co-formulated in the same SNALP at 1:1, 1:2, or 1:4 molar ratio (up to 4-fold molar excess of agonist)): antagonized
- immunostimulatory effects (IFN-α induction) of ApoB antisense ssRNA when co-formulated [1, 3]: abolished
- immunostimulatory effects (IFN-α induction) of ApoB antisense ssRNA when co-formulated ([1]; human PBMCs, co-formulated in the same SNALP, 24 h, listed as NP-mU): abrogated
- immunostimulatory effects (IFN-α induction) of ApoB siRNA duplex when co-formulated ([1]; human PBMCs, co-formulated in the same SNALP, equimolar, 24 h): abrogated
- IFN-α levels induced by β-gal antisense ssRNA when co-encapsulated ([1]; human PBMCs, 24 h): abrogated

Substance: β-gal [reference compound]
- immunostimulatory effects (IFN-α induction) of ApoB antisense ssRNA when co-formulated [1, 3]: high levels of IFN-α were still induced

Substance: polyUmod10: 2′OMe-uridine homopolymer of 10 nucleotides in length (UUUUUUUUUU; all 2'-O-methyl, backbone not given here)
- cytokine production from human PBMCs when co-formulated with immunostimulatory RNA ([1]; human PBMCs): significantly reduced cytokine induction, although inhibition with these shorter oligonucleotides was not absolute
- IFN-α levels induced by β-gal antisense ssRNA when co-encapsulated ([1]; human PBMCs, 24 h): significantly reduced
- IL-6 levels induced by β-gal antisense ssRNA when co-encapsulated ([1]; human PBMCs, 24 h): significantly reduced
- IFN-α levels induced by β-gal antisense ssRNA when co-encapsulated ([1]; human PBMCs, 24 h, listed as (mU)10): inhibit
